Assay results: PubChem BioAssay AID588660 (The Scripps Research Institute Molecular Screening Center, 2011)
The source made the active and inactive calls.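 How the source made its calls: active means KLF5 protein level shifted at least 30% from solvent-only control, either down or up; inactive means shift under 30% either way.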

Biological target: Krueppel-like factor 5 (Homo sapiens) (UniProt Q13887)
Test: KLF5 protein abundance shift by immunoblot – western blot, chemiluminescence, HT29 colorectal cells, counter-screen for KLF5 inhibitor project, late-stage follow-up (AID 588660)
Settings: 24 h, at 10 µM, active compounds read high

Krueppel-like factor 5 (Homo sapiens), sequence (Q13887 whole entry, looked up): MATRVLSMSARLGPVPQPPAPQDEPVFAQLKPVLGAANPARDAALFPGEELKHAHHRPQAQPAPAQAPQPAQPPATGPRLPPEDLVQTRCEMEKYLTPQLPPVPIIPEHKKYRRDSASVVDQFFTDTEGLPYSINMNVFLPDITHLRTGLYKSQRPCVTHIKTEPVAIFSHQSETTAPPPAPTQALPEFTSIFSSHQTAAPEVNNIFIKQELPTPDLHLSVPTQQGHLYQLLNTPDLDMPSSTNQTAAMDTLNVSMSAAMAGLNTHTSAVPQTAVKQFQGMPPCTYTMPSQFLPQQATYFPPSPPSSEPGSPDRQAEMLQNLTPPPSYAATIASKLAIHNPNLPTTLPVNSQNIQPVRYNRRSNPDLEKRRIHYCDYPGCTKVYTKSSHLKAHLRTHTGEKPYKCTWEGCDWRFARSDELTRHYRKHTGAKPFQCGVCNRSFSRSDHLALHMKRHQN

CN(C(=O)COC(=O)/C=C/c1cccc([N+](=O)[O-])c1)C1CCS(=O)(=O)C1 (stereo unspecified)
inhibition: 12.8% (inactive)
